26 compounds from patent publication US9314026B2, “Heterocyclylpyri(mi)dinylpyrazole” (Bayer Intellectual Property GmbH, priority 2011, dated 2016) can be followed below.

Usually chromatographic logP stands for a lipophilicity value derived from retention on a column.

This data set in a line: determination of the log P values by HPLC on a reverse phase column (C18), EEC-Directive 79/831 Annex V.A8. Format: physicochemical. The method, then: Method A Note on the determination of the log P values and mass detection: The stated log P values were determined in accordance with EEC-Directive 79/831 Annex V.A8 by HPLC (High Performance Liquid Chromatography) on a reverse phase column (C18). […] The mass detection was effected with an […] system. Method B Note on the determination of the log P values and mass detection: The stated log P values were determined in accordance with EEC-Directive 79/831 Annex V.A8 by HPLC (High Performance Liquid Chromatography) on a reverse phase column (C18). […] The mass detection was effected with the Micronass ZQ2000 mass detector from Waters. Method C Note on the determination of the log P values and mass detection: The stated log P values were determined in accordance with EEC-Directive 79/831 Annex V.A8 by UPLC (Ultra Performance Liquid Chromatography) on a reverse phase column (C18). […] The mass detection was effected with the LCT Premier or SQD mass detector from Waters.

Where two headings read alike, the source gives them in different places.

Regarding `O=C(Nc1cc(-c2c(-c3ccc(F)cc3)nn3c2CCC3)ccn1)C1CCOCC1` [[XI-27], N-{4-[2-(4-fluorophenyl)-5,6-dihydro-4H-pyrrolo[1,2-b]pyrazol-3-yl]pyridin-2-yl}tetrahydro-2H-pyran-4-carboxamide], where the note is “pH 2.3”, the chromatographic logP amounted to 1.77.
The compound `CC(C)CC(=O)Nc1cc(-c2c(-c3ccc(F)cc3)nn3c2CCC3)ccn1` [[XI-15], N-{4-[2-(4-fluorophenyl)-5,6-dihydro-4H-pyrrolo[1,2-b]pyrazol-3-yl]pyridin-2-yl}-3-methylbutanamide] registered a chromatographic logP (pH 2.3) of 2.2.
With `O=C(Nc1cc(-c2c(-c3ccc(F)cc3)nn3c2CCC3)ccn1)C1CC1` [[XI-4], N-{4-[2-(4-fluorophenyl)-5,6-dihydro-4H-pyrrolo[1,2-b]pyrazol-3-yl]pyridin-2-yl}cyclopropanecarboxamide], the chromatographic logP (pH 2.3) is 1.73.
`Fc1ccc(-c2cc3n(n2)CCC3)cc1F` [[VI-2], 2-(3,4-difluorophenyl)-5,6-dihydro-4H-pyrrolo[1,2-b]pyrazole]: the chromatographic logP reads like this: (pH 2.3) 2.69; (pH 2.7) 2.69.
With `OCCCCc1cc(-c2ccc(F)cc2)n[nH]1` [[XIV-4], 4-[3-(4-fluorophenyl)-1H-pyrazol-5-yl]butan-1-ol], the chromatographic logP by setting is: (pH 2.3) 1.72; (pH 2.7) 1.72.
On to `OCCCc1cc(-c2ccc(F)c(Cl)c2)n[nH]1` [[XIV-3], 3-[3-(3-chloro-4-fluorophenyl)-1H-pyrazol-5-yl]propan-1-ol], for which the chromatographic logP runs as follows: (pH 2.3) 1.97; (pH 2.7) 1.96.
On to `O=C(Nc1cc(-c2c(-c3csc(Cl)c3)nn3c2CCC3)ccn1)C1CC1` [[XI-20], N-{4-[2-(5-chloro-3-thienyl)-5,6-dihydro-4H-pyrrolo[1,2-b]pyrazol-3-yl]pyridin-2-yl}cyclopropanecarboxamide], for which, where the note is “pH 2.3”, the chromatographic logP came out at 2.02.
Compound `CC(C)C(=O)Nc1cc(-c2c(-c3ccc(F)cc3)nn3c2CCC3)ccn1` [[XI-8], N-{4-[2-(4-fluorophenyl)-5,6-dihydro-4H-pyrrolo[1,2-b]pyrazol-3-yl]pyridin-2-yl}-2-methylpropanamide] displayed a chromatographic logP (pH 2.3) of 1.97.
Regarding `COCC(=O)Nc1cc(-c2c(-c3ccccc3)nn3c2C(C)CC3)ccn1` (stereo not shown) [[XI-5], 2-methoxy-N-[4-(4-methyl-2-phenyl-5,6-dihydro-4H-pyrrolo[1,2-b]pyrazol-3-yl)pyridin-2-yl]acetamide], the chromatographic logP (pH 2.3) is 2.22.
Still for that read-out and setting: in the case of `CCC(=O)Nc1cc(-c2c(-c3ccc(F)cc3)nn3c2CC(C)C3)ccn1` (stereo not shown) [[XI-7], N-{4-[2-(4-fluorophenyl)-5-methyl-5,6-dihydro-4H-pyrrolo[1,2-b]pyrazol-3-yl]pyridin-2-yl}propanamide] it was 1.91.
In the case of `CC1(C)OB(c2c(-c3ccc(F)cc3)nn3c2CCC3)OC1(C)C` [[III-1], 2-(4-fluorophenyl)-3-(4,4,5,5-tetramethyl-1,3,2-dioxaborolan-2-yl)-5,6-dihydro-4H-pyrrolo[1,2-b]pyrazole], the chromatographic logP (pH 2.7) stood at 3.97.
The compound `CCC(=O)N(C(=O)C1CC1)c1cc(-c2c(-c3ccc(F)cc3)nn3c2CCCC3)ccn1` [Example 17, N-{4-[2-(4-fluorophenyl)-4,5,6,7-tetrahydropyrazolo[1,5-a]pyridin-3-yl]pyridin-2-yl}-N-propionylcyclopropanecarboxamide] yielded a chromatographic logP of 3.22.
`O=C(Nc1cc(-c2c(-c3ccc(F)cc3)nn3c2CCC3)ccn1)C1CCC1` [[XI-14], N-{4-[2-(4-fluorophenyl)-5,6-dihydro-4H-pyrrolo[1,2-b]pyrazol-3-yl]pyridin-2-yl}cyclobutanecarboxamide] had a chromatographic logP (pH 2.3) of 2.08.
In the case of `CC(CCO)c1cc(-c2ccc(F)cc2)n[nH]1` (stereo not shown) [[XIV-5], 3-[3-(4-fluorophenyl)-1H-pyrazol-5-yl]butan-1-ol], the chromatographic logP was found to be 1.74 (pH 2.3) and 1.74 (pH 2.7).
For `CC1CCc2c(I)c(-c3ccc(F)cc3)nn21` (stereo not shown) [[IV-5], 2-(4-fluorophenyl)-3-iodo-6-methyl-5,6-dihydro-4H-pyrrolo[1,2-b]pyrazole], the chromatographic logP (pH 2.3) was determined as 3.78 and the chromatographic logP (pH 2.5) amounted to 3.78.
For the setting “pH 2.3”, `CCC1CCc2c(-c3ccnc(NC(=O)CC4CC4)c3)c(-c3ccc(F)cc3)nn21` (stereo not shown) [[XI-26], 2-cyclopropyl-N-{4-[6-ethyl-2-(4-fluorophenyl)-5,6-dihydro-4H-pyrrolo[1,2-b]pyrazol-3-yl]pyridin-2-yl}acetamide] registered a chromatographic logP of 2.81.
As to `CC1CCn2nc(-c3ccccc3)c(I)c21` (stereo not shown) [[IV-4], 3-iodo-4-methyl-2-phenyl-5,6-dihydro-4H-pyrrolo[1,2-b]pyrazole], the chromatographic logP reads like this: (pH 2.3) 3.56; (pH 2.5) 3.56.
Take `Fc1ccc(-c2nn3c(c2Br)CCC3)cc1Cl` [[IV-3], 3-bromo-2-(3-chloro-4-fluorophenyl)-5,6-dihydro-4H-pyrrolo[1,2-b]pyrazole]: the chromatographic logP was determined as 4.01 (pH 2.3) and 4.01 (pH 2.5).
As to `CS(=O)(=O)OCCCc1cc(-c2ccc(F)c(F)c2)n[nH]1` [[VII-3], 3-[3-(3,4-difluorophenyl)-1H-pyrazol-5-yl]propyl methanesulfonate], the chromatographic logP (pH 2.7) came out at 2.17.
Where the note is “pH 2.3”, `O=C(CC1CC1)Nc1cc(-c2c(-c3csc(Cl)c3)nn3c2CCC3)ccn1` [[XI-25], N-{4-[2-(5-chloro-3-thienyl)-5,6-dihydro-4H-pyrrolo[1,2-b]pyrazol-3-yl]pyridin-2-yl}-2-cyclopropylacetamide] registered a chromatographic logP of 2.4.
On the same count and under the same terms, the value for `CCC(=O)Nc1cc(-c2c(-c3ccc(F)c(F)c3)nn3c2CCC3)ccn1` [[XI-10], N-{4-[2-(3,4-difluorophenyl)-5,6-dihydro-4H-pyrrolo[1,2-b]pyrazol-3-yl]pyridin-2-yl}propanamide] was 1.93; that for `CCC(C)C(=O)Nc1cc(-c2c(-c3ccc(F)cc3)nn3c2CCC3)ccn1` (stereo not shown) [[XI-17], N-{4-[2-(4-fluorophenyl)-5,6-dihydro-4H-pyrrolo[1,2-b]pyrazol-3-yl]pyridin-2-yl}-2-methylbutanamide] was 2.23; that for `O=C(CCc1ccccc1)Nc1cc(-c2c(-c3ccc(F)cc3)nn3c2CCC3)ccn1` [[XI-28], N-{4-[2-(4-fluorophenyl)-5,6-dihydro-4H-pyrrolo[1,2-b]pyrazol-3-yl]pyridin-2-yl}-3-phenylpropanamide] was 2.62.
As for `COC(=O)N(C(=O)C1CC1)c1cc(-c2c(-c3ccc(F)cc3)nn3c2CCC3)ccn1` [Example 15, methyl (cyclopropylcarbonyl){4-[2-(4-fluorophenyl)-5,6-dihydro-4H-pyrrolo[1,2-b]pyrazol-3-yl]pyridin-2-yl}carbamate], the chromatographic logP came out at 2.54.
The compound `CCC(=O)Nc1cc(-c2c(-c3ccc(F)cc3)nn3c2CCC3CC)ccn1` (stereo not shown) [[XI-16], N-{4-[6-ethyl-2-(4-fluorophenyl)-5,6-dihydro-4H-pyrrolo[1,2-b]pyrazol-3-yl]pyridin-2-yl}propanamide] came in with a chromatographic logP (pH 2.3) of 2.3.
On to `CC(=O)Nc1cc(-c2c(-c3ccccc3)nn3c2C(C)CC3)ccn1` (stereo not shown) [[XI-1], N-[4-(4-methyl-2-phenyl-5,6-dihydro-4H-pyrrolo[1,2-b]pyrazol-3-yl)pyridin-2-yl]acetamide], for which the chromatographic logP runs as follows: (pH 2.3) 1.6; (pH 2.7) 1.76.
